Data taken from the supplement of paper PMC10307832.

How the values were obtained:
Experiment in all cases: relative viability (nuclei count vs DMSO), 5 days (fraction); higher = more cells survive
A-427 = system: A-427
In short: (§1)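 Cells from lung cancer lines were seeded into 1536-well plates and, one day later, dosed by pin tool. Treatments were either a single drug or a fixed dose of an anchor drug with five library-drug doses (not always all listed) in √10 steps. After 5 days, nuclei were stained in a one-step fixation (final 0.05% Triton X-100, 1% formaldehyde, 1 ug/ml Hoechst) and counted on 4× images, and relative viability is the treated-to-vehicle nuclei ratio, as the median of duplicate plates.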

ABC-1 = system: ABC-1
In short: as §1

EMC-BAC-2 = system: EMC-BAC-2
In short: as §1

HARA = system: HARA
In short: as §1

HOP-62 = system: HOP-62
In short: as §1

LXF-289 = system: LXF-289
In short: as §1

NCI-H1792 = system: NCI-H1792
In short: as §1

NCI-H1993 = system: NCI-H1993
In short: as §1

NCI-H2009 = system: NCI-H2009
In short: as §1

NCI-H2228 = system: NCI-H2228
In short: as §1

NCI-H3122 = system: NCI-H3122
In short: as §1

NCI-H322M = system: NCI-H322M
In short: as §1

NCI-H596 = system: NCI-H596
In short: as §1

NCI-H727 = system: NCI-H727
In short: as §1

PC-3 [JPC-3] = system: PC-3 [JPC-3]
In short: as §1

SW 1573 = system: SW 1573
In short: as §1

**Q.** Which results are given for Cc1sc2c(c1C)C(c1ccc(Cl)cc1)=N[C@@H](CC(=O)OC(C)(C)C)c1nnc(C)n1-2 [JQ1] + CC(C)C[C@H](NC(=O)[C@H](Cc1ccccc1)NC(=O)c1cnccn1)B(O)O [Bortezomib] (partner 0.002 µM)?
**A.** relative viability (A-427; first compound 0.04 µM): 0.969; relative viability (A-427; first compound 0.1265 µM): 1.04; relative viability (A-427; first compound 0.4 µM): 0.979; relative viability (A-427; first compound 1.265 µM): 0.682; relative viability (A-427; first compound 4 µM): 0.474; relative viability (ABC-1; first compound 0.04 µM): 0.306; relative viability (ABC-1; first compound 0.1265 µM): 0.233; relative viability (ABC-1; first compound 0.4 µM): 0.329; relative viability (ABC-1; first compound 1.265 µM): 0.332; relative viability (ABC-1; first compound 4 µM): 0.272; relative viability (EMC-BAC-2; first compound 0.04 µM): 1.09; relative viability (EMC-BAC-2; first compound 0.1265 µM): 0.961; relative viability (EMC-BAC-2; first compound 0.4 µM): 0.91; relative viability (EMC-BAC-2; first compound 1.265 µM): 0.621; relative viability (EMC-BAC-2; first compound 4 µM): 0.544; relative viability (HARA; first compound 0.04 µM): 1.08; relative viability (HARA; first compound 0.1265 µM): 0.725; relative viability (HARA; first compound 0.4 µM): 0.611; relative viability (HARA; first compound 1.265 µM): 0.433; relative viability (HARA; first compound 4 µM): 0.173; relative viability (HOP-62; first compound 0.04 µM): 0.447; relative viability (HOP-62; first compound 0.1265 µM): 0.641; relative viability (HOP-62; first compound 0.4 µM): 0.515; relative viability (HOP-62; first compound 1.265 µM): 0.11; relative viability (HOP-62; first compound 4 µM): 0.111; relative viability (LXF-289; first compound 0.04 µM): 0.977; relative viability (LXF-289; first compound 0.1265 µM): 0.887; relative viability (LXF-289; first compound 0.4 µM): 0.865; relative viability (LXF-289; first compound 1.265 µM): 0.894; relative viability (LXF-289; first compound 4 µM): 0.719; relative viability (NCI-H1792; first compound 0.04 µM): 0.953; relative viability (NCI-H1792; first compound 0.4 µM): 0.895; relative viability (NCI-H1792; first compound 1.265 µM): 0.657; relative viability (NCI-H1792; first compound 4 µM): 0.456; relative viability (NCI-H1993; first compound 0.04 µM): 1.08; relative viability (NCI-H1993; first compound 0.1265 µM): 1.13; relative viability (NCI-H1993; first compound 0.4 µM): 1.04; relative viability (NCI-H1993; first compound 1.265 µM): 0.738; relative viability (NCI-H1993; first compound 4 µM): 0.458; relative viability (NCI-H2009; first compound 0.04 µM): 0.947; relative viability (NCI-H2009; first compound 0.1265 µM): 0.526; relative viability (NCI-H2009; first compound 0.4 µM): 0.262; relative viability (NCI-H2009; first compound 1.265 µM): 0.172; relative viability (NCI-H2009; first compound 4 µM): 0.197; relative viability (NCI-H2228; first compound 0.04 µM): 0.764; relative viability (NCI-H2228; first compound 0.1265 µM): 0.918; relative viability (NCI-H2228; first compound 0.4 µM): 0.609; relative viability (NCI-H2228; first compound 1.265 µM): 0.245; relative viability (NCI-H2228; first compound 4 µM): 0.185; relative viability (NCI-H3122; first compound 0.04 µM): 1.01; relative viability (NCI-H3122; first compound 0.1265 µM): 0.998; relative viability (NCI-H3122; first compound 0.4 µM): 1.03; relative viability (NCI-H3122; first compound 1.265 µM): 0.996; relative viability (NCI-H3122; first compound 4 µM): 0.905; relative viability (NCI-H322M; first compound 0.04 µM): 1.33; relative viability (NCI-H322M; first compound 0.1265 µM): 1.24; relative viability (NCI-H322M; first compound 0.4 µM): 1.35; relative viability (NCI-H322M; first compound 1.265 µM): 1.04; relative viability (NCI-H322M; first compound 4 µM): 0.94; relative viability (NCI-H596; first compound 0.04 µM): 0.945; relative viability (NCI-H596; first compound 0.1265 µM): 0.781; relative viability (NCI-H596; first compound 0.4 µM): 0.955; relative viability (NCI-H596; first compound 1.265 µM): 0.673; relative viability (NCI-H596; first compound 4 µM): 0.344; relative viability (NCI-H727; first compound 0.04 µM): 0.756; relative viability (NCI-H727; first compound 0.1265 µM): 1.01; relative viability (NCI-H727; first compound 0.4 µM): 0.588; relative viability (NCI-H727; first compound 1.265 µM): 0.38; relative viability (NCI-H727; first compound 4 µM): 0.395; relative viability (PC-3 [JPC-3]; first compound 0.04 µM): 0.845; relative viability (PC-3 [JPC-3]; first compound 0.1265 µM): 0.81; relative viability (PC-3 [JPC-3]; first compound 0.4 µM): 0.977; relative viability (PC-3 [JPC-3]; first compound 1.265 µM): 0.675; relative viability (PC-3 [JPC-3]; first compound 4 µM): 0.352; relative viability (SW 1573; first compound 0.04 µM): 1.13; relative viability (SW 1573; first compound 0.1265 µM): 1.03; relative viability (SW 1573; first compound 0.4 µM): 0.863; relative viability (SW 1573; first compound 1.265 µM): 0.582; relative viability (SW 1573; first compound 4 µM): 0.351

**Q.** Which results are given for COc1cc2nccc(Oc3ccc(NC(=O)Nc4cc(C)on4)c(Cl)c3)c2cc1OC [Tivozanib] + CC(C)C[C@H](NC(=O)[C@H](Cc1ccccc1)NC(=O)c1cnccn1)B(O)O [Bortezomib] (partner 0.002 µM)?
**A.** relative viability (A-427; first compound 0.005 µM): 0.988; relative viability (A-427; first compound 0.01581 µM): 1.03; relative viability (A-427; first compound 0.05 µM): 0.962; relative viability (A-427; first compound 0.1581 µM): 0.893; relative viability (A-427; first compound 0.5 µM): 0.932; relative viability (ABC-1; first compound 0.005 µM): 0.315; relative viability (ABC-1; first compound 0.01581 µM): 0.3; relative viability (ABC-1; first compound 0.05 µM): 0.277; relative viability (ABC-1; first compound 0.1581 µM): 0.304; relative viability (ABC-1; first compound 0.5 µM): 0.288; relative viability (EMC-BAC-2; first compound 0.005 µM): 1.05; relative viability (EMC-BAC-2; first compound 0.01581 µM): 1.07; relative viability (EMC-BAC-2; first compound 0.05 µM): 1.1; relative viability (EMC-BAC-2; first compound 0.1581 µM): 0.769; relative viability (EMC-BAC-2; first compound 0.5 µM): 1.08; relative viability (HARA; first compound 0.005 µM): 1.03; relative viability (HARA; first compound 0.01581 µM): 1.18; relative viability (HARA; first compound 0.05 µM): 1.08; relative viability (HARA; first compound 0.1581 µM): 1.27; relative viability (HARA; first compound 0.5 µM): 1.14; relative viability (HOP-62; first compound 0.005 µM): 0.708; relative viability (HOP-62; first compound 0.01581 µM): 0.659; relative viability (HOP-62; first compound 0.05 µM): 0.548; relative viability (HOP-62; first compound 0.1581 µM): 0.565; relative viability (HOP-62; first compound 0.5 µM): 0.819; relative viability (LXF-289; first compound 0.005 µM): 0.952; relative viability (LXF-289; first compound 0.01581 µM): 0.956; relative viability (LXF-289; first compound 0.05 µM): 0.959; relative viability (LXF-289; first compound 0.1581 µM): 1.03; relative viability (LXF-289; first compound 0.5 µM): 0.964; relative viability (NCI-H1792; first compound 0.005 µM): 0.961; relative viability (NCI-H1792; first compound 0.01581 µM): 0.967; relative viability (NCI-H1792; first compound 0.05 µM): 0.965; relative viability (NCI-H1792; first compound 0.1581 µM): 0.989; relative viability (NCI-H1792; first compound 0.5 µM): 0.947; relative viability (NCI-H1993; first compound 0.005 µM): 0.981; relative viability (NCI-H1993; first compound 0.01581 µM): 1.02; relative viability (NCI-H1993; first compound 0.05 µM): 1.39; relative viability (NCI-H1993; first compound 0.1581 µM): 0.647; relative viability (NCI-H1993; first compound 0.5 µM): 1.13; relative viability (NCI-H2009; first compound 0.005 µM): 0.945; relative viability (NCI-H2009; first compound 0.01581 µM): 1.02; relative viability (NCI-H2009; first compound 0.05 µM): 1.04; relative viability (NCI-H2009; first compound 0.1581 µM): 1.04; relative viability (NCI-H2009; first compound 0.5 µM): 0.732; relative viability (NCI-H2228; first compound 0.005 µM): 0.86; relative viability (NCI-H2228; first compound 0.01581 µM): 0.859; relative viability (NCI-H2228; first compound 0.05 µM): 1.02; relative viability (NCI-H2228; first compound 0.1581 µM): 0.887; relative viability (NCI-H2228; first compound 0.5 µM): 0.972; relative viability (NCI-H3122; first compound 0.005 µM): 0.99; relative viability (NCI-H3122; first compound 0.01581 µM): 1.02; relative viability (NCI-H3122; first compound 0.05 µM): 1.08; relative viability (NCI-H3122; first compound 0.1581 µM): 1.12; relative viability (NCI-H3122; first compound 0.5 µM): 1.04; relative viability (NCI-H322M; first compound 0.005 µM): 1.24; relative viability (NCI-H322M; first compound 0.01581 µM): 1.21; relative viability (NCI-H322M; first compound 0.05 µM): 1.18; relative viability (NCI-H322M; first compound 0.1581 µM): 1.05; relative viability (NCI-H322M; first compound 0.5 µM): 1.28; relative viability (NCI-H596; first compound 0.005 µM): 1.03; relative viability (NCI-H596; first compound 0.01581 µM): 0.887; relative viability (NCI-H596; first compound 0.05 µM): 0.918; relative viability (NCI-H596; first compound 0.1581 µM): 0.993; relative viability (NCI-H596; first compound 0.5 µM): 1.08; relative viability (NCI-H727; first compound 0.005 µM): 0.701; relative viability (NCI-H727; first compound 0.01581 µM): 0.818; relative viability (NCI-H727; first compound 0.05 µM): 0.772; relative viability (NCI-H727; first compound 0.5 µM): 0.873; relative viability (PC-3 [JPC-3]; first compound 0.005 µM): 0.82; relative viability (PC-3 [JPC-3]; first compound 0.01581 µM): 0.855; relative viability (PC-3 [JPC-3]; first compound 0.05 µM): 0.847; relative viability (PC-3 [JPC-3]; first compound 0.1581 µM): 0.835; relative viability (PC-3 [JPC-3]; first compound 0.5 µM): 0.794; relative viability (SW 1573; first compound 0.005 µM): 1.02; relative viability (SW 1573; first compound 0.01581 µM): 1.01; relative viability (SW 1573; first compound 0.05 µM): 0.936; relative viability (SW 1573; first compound 0.1581 µM): 0.772; relative viability (SW 1573; first compound 0.5 µM): 0.831
